Converted amounts (≈) assume the structure as drawn. A value given as a limit tells only on which side of the number the result lay.

Series [1] has as its target Mucosa-associated lymphoid tissue lymphoma translocation protein 1 (Homo sapiens, UniProt Q9UDY8). Description: Inhibition of cIAP2 fused MALT1 (unknown origin) expressed in HEK293 cells assessed as suppression of NF-kB activation after 24 hrs by luciferase reporter gene assay. The format is cell-based. Background: Reporter assays use an easily measured gene product as a stand-in for the process of interest.

In series [2] the target is T1, Mucosa-associated lymphoid tissue lymphoma translocation protein 1 (Homo sapiens, UniProt Q9UDY8).
T1 sequence (Q9UDY8 whole entry): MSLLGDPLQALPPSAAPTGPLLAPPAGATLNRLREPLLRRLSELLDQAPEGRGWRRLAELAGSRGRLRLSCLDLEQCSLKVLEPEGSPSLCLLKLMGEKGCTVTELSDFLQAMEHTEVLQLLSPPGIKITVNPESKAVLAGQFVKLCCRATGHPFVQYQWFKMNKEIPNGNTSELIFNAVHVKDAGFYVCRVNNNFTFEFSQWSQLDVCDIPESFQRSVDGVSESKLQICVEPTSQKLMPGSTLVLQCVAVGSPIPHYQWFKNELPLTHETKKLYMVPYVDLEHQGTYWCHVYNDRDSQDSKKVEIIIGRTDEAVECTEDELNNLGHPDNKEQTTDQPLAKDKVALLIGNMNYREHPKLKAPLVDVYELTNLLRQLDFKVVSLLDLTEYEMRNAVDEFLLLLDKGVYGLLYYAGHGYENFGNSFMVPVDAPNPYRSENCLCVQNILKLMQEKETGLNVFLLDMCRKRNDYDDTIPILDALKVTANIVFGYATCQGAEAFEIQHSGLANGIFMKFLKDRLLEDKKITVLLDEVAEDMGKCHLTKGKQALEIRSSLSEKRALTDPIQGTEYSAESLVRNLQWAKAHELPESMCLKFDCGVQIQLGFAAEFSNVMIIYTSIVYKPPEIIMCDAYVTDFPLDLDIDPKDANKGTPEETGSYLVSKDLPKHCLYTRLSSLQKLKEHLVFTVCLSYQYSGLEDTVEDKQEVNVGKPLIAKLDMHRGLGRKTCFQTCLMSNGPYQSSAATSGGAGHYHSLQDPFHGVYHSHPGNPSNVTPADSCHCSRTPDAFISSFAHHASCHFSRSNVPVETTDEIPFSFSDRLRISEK
As to the kind of experiment: Inhibition of MALT1 (unknown origin) using Ac-Trp-Leu-Arg-Ser-Arg'Cys(PT14)-NH2 as substrate preincubated for 60 mins followed by substrate addition measured after 60 mins by fluorescence assay.

The target of series [3] is T1, Mucosa-associated lymphoid tissue lymphoma translocation protein 1. Description: Inhibition of MALT1 in human OCI-LY3 cells assessed a decrease in BCL10 cleavage after 24 hrs by ELISA. The class given is cell-based.
Series [4] is described as follows: Clearance in rat hepatocytes assessed per 10^6 cells. The class given is ADME, cell-based, Hepatocyte.
Series [5] is described as follows: Clearance in rat liver microsomes. The format is ADME, microsome. Particulars: read-out: CLH. (Liver microsomes are vesicles of endoplasmic reticulum, rich in cytochrome P450 enzymes.)
Series [6] in a line: Oral bioavailability in rat at 3 mg/kg. The format is ADME, organism-based. Conditions: in vivo.
The nature of series [7]: Solubility of the compound in buffer at pH 4. The class given is physicochemical.
Series [8] can be described thus: Solubility of the compound in buffer at pH 6.8. The class given is physicochemical.
Series [9] can be described thus: Volume of distribution at steady state in rat at 1 mg/kg, iv or 3 mg/kg, po. The class given is ADME, organism-based. Particulars: in vivo, read-out: Vdss.
Series [10] is described as follows: Half life in rat at 1 mg/kg, iv or 3 mg/kg, po. The class given is ADME, organism-based. Conditions: in vivo.
A short description of series [11]: AUC in rat at 1 mg/kg, iv. The class given is ADME, organism-based. Conditions: in vivo.
The nature of series [12]: Clearance in rat at 1 mg/kg, iv or 3 mg/kg, po. The class given is ADME, organism-based. Conditions: in vivo.
Series [13] has as its target T1, Mucosa-associated lymphoid tissue lymphoma translocation protein 1. As to the kind of experiment: Inhibition of MALT1 in PMA-stimulated human Jurkat T cells assessed as reduction in IL2 level pretreated for 30 mins followed by PMA-stimulation measured after 5.5 hr by bioluminescence assay. The class given is cell-based.
Another series relates to OCI-Ly3. As to the kind of experiment: Antiproliferative activity against human OCI-LY3 cells after 72 hrs by CellTiterGlo assay. The class given is functional, cell-based. Conditions: OCI-Ly3, 72 h. (In general: Cellular ATP, detected with luciferase, serves as a proxy for viable cell number.)
Another series has as its system BJAB. As to the kind of experiment: Antiproliferative activity against human BJAB cells after 72 hrs by CellTiterGlo assay. The format is functional, cell-based.
Series [14] can be described thus: Apparent permeability from apical to basolateral side in human Caco2 cells. The format is ADME, cell-based. Conditions: Caco-2.

Regarding `O=C(Nc1ccc(F)c(Cl)c1)C1CCN(c2ncccn2)CC1`, the concentration for half-maximal inhibition (IC50) (usually the concentration at which inhibition is half-maximal) in [1] came out at 3100 nM; in series [2], 1620 nM. For the same compound, in [3], the response was half-maximal at 5400 nM (EC50).

Regarding `Cc1nc(C)n(-c2ccc(NC(=O)C3CCN(c4ncccc4[N+](=O)[O-])CC3)cc2Cl)n1`, the CLH in series [4] was determined as 4.1 µL/min/1e6 cells. In [5], the CLint scaled turned out to be 29 mL/min/kg. The half-maximal inhibitory concentration (IC50) in series [1] is 640 nM; in [2] it was 184 nM. Moreover, the bioavailability (usually the share of a dose that reaches the circulation, judged against a reference dose that is usually intravenous) in series [6] came out at 46%. Also, the solubility (in general, the dissolved amount per volume that the medium holds) in series [7] was 170 µM (≈ 77.5 µg/mL); in [8], 7 µM (≈ 3.19 µg/mL). Moreover, the Vd in series [9] came to 1.1 L/kg. For the same compound, in series [10], the half-life – broadly, the time needed for the level to fall by half in the phase considered – was 30 min. Moreover, the AUC – broadly, concentration integrated over time – in series [11] stood at 0.914 µM·h. The compound also showed a clearance in series [12] of 43 mL/min/kg.

For the compound `O=C(Nc1ccccc1)C1CCN(c2ncccc2Cl)CC1`, inhibition in [2] was half-maximal at 4700 nM (IC50).

Consider `CC(C)CN1CCC(C(=O)Nc2ccc(F)c(Cl)c2)CC1`, for which, in series [2], the 50% inhibitory concentration (IC50) is more than 100000 nM.

`O=C(NC1CCCCC1)C1CCN(c2ncccc2Cl)CC1` had an IC50 in [2] of more than 100000 nM.

In the case of `O=C(Nc1ccc(F)c(Cl)c1)C1CCN(c2nccnc2Cl)CC1`, the results for the IC50 in series [1] and in series [2] were 290 nM and 100 nM, respectively. It took 400 nM to reach a half-maximal effect in series [3] (EC50).

As for `COc1ncc(NC(=O)C2CCN(c3ncccc3Cl)CC2)cc1Cl`, the IC50 in [1] worked out at 190 nM; in series [2] it was 13 nM. Moreover, the response in [3] was half-maximal at 450 nM (EC50).

For the compound `O=C(Nc1cccc(Cl)c1)C1CCN(c2ncccc2Cl)CC1`, the concentration for half-maximal inhibition (IC50) in series [1] is 1590 nM; in [2], 210 nM. For the same compound, it took 3400 nM to reach a half-maximal effect in [3] (EC50).

For `O=C(Nc1ccc(F)c(Cl)c1)C1CCN(c2ccccc2)CC1`, the IC50 in [1] worked out at 3200 nM; in series [2], 820 nM. For the same compound, in series [3], the half-maximal effective concentration (EC50) (as a rule, the midpoint of the concentration-response curve) came out at 9200 nM.

In [4], `Cc1ccc(NC(=O)C2CCN(c3ncccc3Cl)CC2)cc1Cl` yielded a CLH of 173 µL/min/1e6 cells. For the same compound, the CLint scaled in series [5] worked out at 81 mL/min/kg. Besides, the concentration for half-maximal inhibition (IC50) stood at 3700 nM in series [1] and 54 nM in [2]. The solubility in [7] and in series [8] was less than 4 µM throughout. Also, the Vd in [9] was 21.4 L/kg. Further, the half-life in series [10] is 120 min. This compound displayed an AUC in [11] of 0.143 µM·h. This compound showed a clearance in [12] of 320 mL/min/kg.

For the compound `O=C(Nc1ccc(F)c(Cl)c1)C1CCN(c2ncccc2Cl)CC1`, the concentration for half-maximal inhibition (IC50) in series [1] came to 1350 nM; in series [2], 28 nM. For the same compound, the EC50 in series [3] was 1500 nM.

As to `N#Cc1cccnc1N1CCC(C(=O)Nc2ccc(F)c(Cl)c2)CC1`, the IC50 in series [1] was found to be 2700 nM; in series [2], 420 nM. In series [3], this compound yielded an EC50 of 2100 nM.

Take `O=C(Nc1cnc(-n2nccn2)c(Cl)c1)C1CCN(c2ncccc2Cl)CC1`: the IC50 in [13] was 50 nM; in series [1] it was 90 nM; in series [2], 4 nM. The half-maximal effective concentration (EC50) is 1400 nM with OCI-Ly3, 230 nM in series [3] and more than 10000 nM with BJAB.

Consider `Nc1cccnc1N1CCC(C(=O)Nc2cnc(-n3nccn3)c(Cl)c2)CC1`, for which the IC50 was determined as 80 nM in series [13], 90 nM in series [1] and 7 nM in series [2]. Moreover, the EC50 in the series on OCI-Ly3 was 3600 nM; in series [3] it was 560 nM; in the series on BJAB it was more than 10000 nM.

For `O=C(Nc1ccc(F)c(Cl)c1)C1CCN(c2ccccn2)CC1`, it took 1900 nM to reach half-maximal inhibition in [2] (IC50).

Regarding `Cc1cn(-c2cc(NC(=O)C3CCN(c4ncccc4Cl)CC3)cc(C(F)(F)F)c2)cn1`, in series [4], the CLH stood at 18.8 µL/min/1e6 cells. For the same compound, the CLint scaled in [5] came out at 60.2 mL/min/kg. The figures for the IC50 in series [1] and in series [2] were 3000 nM and 340 nM, respectively. Further, the bioavailability in [6] came out at 46%. For the same compound, the solubility in series [7] worked out at 690 µM (≈ 320 µg/mL); in [8] it was 16 µM (≈ 7.42 µg/mL). Also, in [9], the Vd was 8.7 L/kg. For the same compound, the half-life in series [10] is 144 min. In addition, the exposure (AUC) in [11] is 0.623 µM·h. This compound also showed a clearance in series [12] of 56 mL/min/kg. For the same compound, the apical-to-basolateral permeability (Papp A→B) (commonly the apparent permeability from the apical to the basolateral side of a cell layer) in series [14] is 7.2 ×10⁻⁶ cm/s.

Take `CNC(=O)c1ncn(-c2ccc(NC(=O)C3CCN(c4ncccc4Cl)CC3)cc2Cl)n1`: the CLH in series [4] amounted to 228 µL/min/1e6 cells. Also, the CLint scaled in series [5] came out at 59.8 mL/min/kg. Further, the values for the IC50 in [1] and in series [2] were 140 nM and 21 nM, respectively. The solubility in series [7] was 8 µM (≈ 3.79 µg/mL); in series [8], less than 4 µM. Further, the Vd in series [9] was 7.5 L/kg. In [10], this compound showed a half-life of 36 min. Also, in series [11], the AUC came to 0.125 µM·h. In [3], this compound gave an EC50 of 210 nM. In series [12], this compound registered a clearance of 282 mL/min/kg. In addition, the apparent permeability from apical to basolateral (Papp A→B) in series [14] came out at 8.2 ×10⁻⁶ cm/s.

`O=C(Nc1ccc(F)c(Cl)c1)C1CCN(Cc2ccc(F)cc2)CC1` registered an IC50 in [2] of more than 100000 nM.

Regarding `Nc1cccnc1N1CCC(C(=O)Nc2ccc(F)c(Cl)c2)CC1`, the 50% inhibitory concentration (IC50) in series [1] is 420 nM; in series [2], 100 nM. The compound also registered an EC50 in series [3] of 540 nM.

On to `N#Cc1ccnc(N2CCC(C(=O)Nc3ccc(F)c(Cl)c3)CC2)c1`, for which it took 9000 nM to reach half-maximal inhibition in series [2] (IC50).

With `Nc1cccnc1N1CCC(C(=O)Nc2ccc(-n3nccn3)c(Cl)c2)CC1`, the CLint scaled in [5] stood at 102 mL/min/kg. Also, the 50% inhibitory concentration (IC50) in series [1] amounted to 110 nM; in series [2], 35 nM. Further, the EC50 was 2000 nM in the series with OCI-Ly3, 190 nM in [3] and more than 10000 nM with BJAB. The solubility in series [7] was 48 µM (≈ 19.1 µg/mL); in [8], less than 4 µM. In addition, the Vd in series [9] stood at 4.1 L/kg. The half-life in [10] is 18 min. This compound returned an AUC in [11] of 0.161 µM·h. In series [12], this compound gave a clearance of 259 mL/min/kg. Besides, in [14], the Papp A→B came out at 19.4 ×10⁻⁶ cm/s.
